Experimental data from patent publication US20200095280A1, “Methods of using GM6 in diagnosing and treating Alzheimers disease” (Genervon Biopharmaceuticals LLC, priority 2016, published 2020).
Where no end group is shown, it is not given here.

Experiment: Blood brain barrier transit: ELISA of brain homogenate after IV injection
Type: in vivo, C57BL6 mice
Details: single bolus IV 0.2 and 2.0 mg/kg, four hours; vs control P=0.0001
Experimental: The ability to transit to the brain was tested. C57BL6 mice were injected with a single bolus IV tail vein injection of GM6 at 0.2 and 2.0 mg/kg. At four hours, the animals were sacrificed, and half of the brain was frozen for ELISA analysis.

Substance: FSRYAR [GM6, FSRYAR]
- GM6 in brain homogenate supernatant (ELISA): detected GM6 at statistically significant levels
